Results from PMC6009956, “Design, synthesis and biological activity of N^4-phenylsubstituted-7H-pyrrolo[2,3-d]pyrimidin-4-amines as dual inhibitors of aurora kinase A and epidermal growth factor receptor kinase” (Journal of Enzyme Inhibition and Medicinal Chemistry, 2017).
Like-named read-outs stand apart in the source and are kept apart here.

Columns and labels:
aurora A kinase (AURKA) = biological target: T1, aurora A kinase (AURKA) (Homo sapiens, UniProt O14965); assay: ADP-Glo kinase assay, Aurora A; format: biochemical
T1 construct: purchased BPS Bioscience (assay run externally by the vendor)
T1 sequence (O14965 1-403): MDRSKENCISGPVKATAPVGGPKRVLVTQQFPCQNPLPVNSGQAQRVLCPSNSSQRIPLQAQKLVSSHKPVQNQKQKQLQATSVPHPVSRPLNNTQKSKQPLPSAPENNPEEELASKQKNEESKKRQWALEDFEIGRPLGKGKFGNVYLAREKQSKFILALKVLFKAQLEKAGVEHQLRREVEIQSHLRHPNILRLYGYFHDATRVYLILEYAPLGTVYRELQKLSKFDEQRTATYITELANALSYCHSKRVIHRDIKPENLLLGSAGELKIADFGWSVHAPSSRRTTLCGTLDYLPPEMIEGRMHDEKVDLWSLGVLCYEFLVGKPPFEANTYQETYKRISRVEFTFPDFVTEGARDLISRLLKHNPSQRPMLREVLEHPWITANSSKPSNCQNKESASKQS

EGFR = EGFR (Homo sapiens, UniProt P00533); assay: ADP-Glo kinase assay, EGFR; format: biochemical; parameters: purchased BPS Bioscience (assay run externally by the vendor)
Sequence of EGFR (P00533 25-1210): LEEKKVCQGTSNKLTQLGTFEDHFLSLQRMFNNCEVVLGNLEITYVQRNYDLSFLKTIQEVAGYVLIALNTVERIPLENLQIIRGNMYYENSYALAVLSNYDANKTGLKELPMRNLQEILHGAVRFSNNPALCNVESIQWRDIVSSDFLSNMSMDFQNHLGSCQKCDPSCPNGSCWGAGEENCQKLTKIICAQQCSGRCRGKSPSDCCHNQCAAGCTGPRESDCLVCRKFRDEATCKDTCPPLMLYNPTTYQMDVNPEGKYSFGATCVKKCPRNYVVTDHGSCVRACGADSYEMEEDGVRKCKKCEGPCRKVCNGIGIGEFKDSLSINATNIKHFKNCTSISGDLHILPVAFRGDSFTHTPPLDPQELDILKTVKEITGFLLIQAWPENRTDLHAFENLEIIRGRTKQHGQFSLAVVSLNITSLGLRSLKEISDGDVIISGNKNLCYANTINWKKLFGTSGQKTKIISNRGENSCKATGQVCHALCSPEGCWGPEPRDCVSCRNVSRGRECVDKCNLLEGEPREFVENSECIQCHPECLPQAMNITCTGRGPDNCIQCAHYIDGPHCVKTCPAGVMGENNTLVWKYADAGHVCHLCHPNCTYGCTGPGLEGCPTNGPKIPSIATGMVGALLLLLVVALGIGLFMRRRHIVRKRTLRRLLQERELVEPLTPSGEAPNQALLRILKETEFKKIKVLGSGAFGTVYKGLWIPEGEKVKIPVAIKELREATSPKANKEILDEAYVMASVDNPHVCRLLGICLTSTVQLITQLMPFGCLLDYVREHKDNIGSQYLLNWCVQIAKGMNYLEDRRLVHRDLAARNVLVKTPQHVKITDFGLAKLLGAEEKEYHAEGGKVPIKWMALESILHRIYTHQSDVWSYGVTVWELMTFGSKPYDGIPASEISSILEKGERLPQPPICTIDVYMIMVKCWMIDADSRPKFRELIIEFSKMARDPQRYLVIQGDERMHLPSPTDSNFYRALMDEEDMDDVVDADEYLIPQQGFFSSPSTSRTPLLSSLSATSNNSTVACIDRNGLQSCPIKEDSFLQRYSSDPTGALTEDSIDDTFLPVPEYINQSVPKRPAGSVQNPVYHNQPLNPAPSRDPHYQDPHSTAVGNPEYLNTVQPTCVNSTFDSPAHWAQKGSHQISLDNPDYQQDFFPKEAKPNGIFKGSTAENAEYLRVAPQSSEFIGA

Structure (SMILES): Clc1ccc(Nc2ncnc3[nH]ccc23)cc1Cl [Compound 5, N^4-(3,4-dichlorophenyl)-7H-pyrrolo[2,3-d]pyrimidine-4-amine]
- IC50 (aurora A kinase (AURKA); 10 µM ATP, triplicate, read-out: AURKA IC50 ± SD): 3.91 ± 0.11 µM
- IC50 (aurora A kinase (AURKA); 10 µM ATP/0.2 mg/ml Kemptide, read-out: Aurora A IC50 (dose-response curve, supplement)): 3.9 µM
- Aurora A % Activity Set1 (aurora A kinase (AURKA); Log[nM] 0): 95%
- Aurora A % Activity Set2 (aurora A kinase (AURKA); Log[nM] 0): 97%
- Aurora A % Activity Set3 (aurora A kinase (AURKA); Log[nM] 0): 103%
- Aurora A % Activity Set1 (aurora A kinase (AURKA); Log[nM] 1.0): 104%
- Aurora A % Activity Set2 (aurora A kinase (AURKA); Log[nM] 1.0): 95%
- Aurora A % Activity Set3 (aurora A kinase (AURKA); Log[nM] 1.0): 97%
- Aurora A % Activity Set1 (aurora A kinase (AURKA); Log[nM] 1.5): 98%
- Aurora A % Activity Set2 (aurora A kinase (AURKA); Log[nM] 1.5): 101%
- Aurora A % Activity Set3 (aurora A kinase (AURKA); Log[nM] 1.5): 102%
- Aurora A % Activity Set1 (aurora A kinase (AURKA); Log[nM] 2.0): 104%
- Aurora A % Activity Set2 (aurora A kinase (AURKA); Log[nM] 2.0): 107%
- Aurora A % Activity Set3 (aurora A kinase (AURKA); Log[nM] 2.0): 105%
- Aurora A % Activity Set1 (aurora A kinase (AURKA); Log[nM] 2.5): 103%
- Aurora A % Activity Set2 (aurora A kinase (AURKA); Log[nM] 2.5): 108%
- Aurora A % Activity Set3 (aurora A kinase (AURKA); Log[nM] 2.5): 106%
- Aurora A % Activity Set1 (aurora A kinase (AURKA); Log[nM] 3.0): 91%
- Aurora A % Activity Set2 (aurora A kinase (AURKA); Log[nM] 3.0): 104%
- Aurora A % Activity Set3 (aurora A kinase (AURKA); Log[nM] 3.0): 91%
- Aurora A % Activity Set1 (aurora A kinase (AURKA); Log[nM] 3.5): 55%
- Aurora A % Activity Set2 (aurora A kinase (AURKA); Log[nM] 3.5): 51%
- Aurora A % Activity Set3 (aurora A kinase (AURKA); Log[nM] 3.5): 58%
- Aurora A % Activity Set1 (aurora A kinase (AURKA); Log[nM] 4.0): 16%
- Aurora A % Activity Set2 (aurora A kinase (AURKA); Log[nM] 4.0): 21%
- Aurora A % Activity Set3 (aurora A kinase (AURKA); Log[nM] 4.0): 19%
- Aurora A % Activity Set1 (aurora A kinase (AURKA); Log[nM] 4.5): 11%
- Aurora A % Activity Set2 (aurora A kinase (AURKA); Log[nM] 4.5): 12%
- Aurora A % Activity Set3 (aurora A kinase (AURKA); Log[nM] 4.5): 11%
- Aurora A % Activity Set1 (aurora A kinase (AURKA); Log[nM] 5.0): 11%
- Aurora A % Activity Set2 (aurora A kinase (AURKA); Log[nM] 5.0): 12%
- Aurora A % Activity Set3 (aurora A kinase (AURKA); Log[nM] 5.0): 13%
- EGFR inhibition (in words) (EGFR): single-digit nanomolar EGFR inhibition
- IC50 (EGFR; 10 µM ATP, triplicate, read-out: EGFR IC50 ± SD): 0.0067 ± 0.00025 µM
- EGFR % Activity Set1 (EGFR; Log[nM] 0): 51%
- EGFR % Activity Set2 (EGFR; Log[nM] 0): 59%
- EGFR % Activity Set3 (EGFR; Log[nM] 0): 58%
- EGFR % Activity Set1 (EGFR; Log[nM] 1.0): 43%
- EGFR % Activity Set2 (EGFR; Log[nM] 1.0): 46%
- EGFR % Activity Set3 (EGFR; Log[nM] 1.0): 48%
- EGFR % Activity Set1 (EGFR; Log[nM] 1.5): 14%
- EGFR % Activity Set2 (EGFR; Log[nM] 1.5): 16%
- EGFR % Activity Set3 (EGFR; Log[nM] 1.5): 16%
- EGFR % Activity Set1 (EGFR; Log[nM] 2.0): 8%
- EGFR % Activity Set2 (EGFR; Log[nM] 2.0): 9%
- EGFR % Activity Set3 (EGFR; Log[nM] 2.0): 9%
- EGFR % Activity Set1 (EGFR; Log[nM] 2.5): 3%
- EGFR % Activity Set2 (EGFR; Log[nM] 2.5): 4%
- EGFR % Activity Set3 (EGFR; Log[nM] 2.5): 5%
- EGFR % Activity Set1 (EGFR; Log[nM] 3.0): 2%
- EGFR % Activity Set2 (EGFR; Log[nM] 3.0): 2%
- EGFR % Activity Set3 (EGFR; Log[nM] 3.0): 2%
- EGFR % Activity Set1 (EGFR; Log[nM] 3.5): 1%
- EGFR % Activity Set2 (EGFR; Log[nM] 3.5): 1%
- EGFR % Activity Set3 (EGFR; Log[nM] 3.5): 1%
- EGFR % Activity Set1 (EGFR; Log[nM] 4.0): 0%
- EGFR % Activity Set2 (EGFR; Log[nM] 4.0): 0%
- EGFR % Activity Set3 (EGFR; Log[nM] 4.0): 1%
- EGFR % Activity Set1 (EGFR; Log[nM] 4.5): 0%
- EGFR % Activity Set2 (EGFR; Log[nM] 4.5): 0%
- EGFR % Activity Set3 (EGFR; Log[nM] 4.5): 0%
- EGFR % Activity Set1 (EGFR; Log[nM] 5.0): 0%
- EGFR % Activity Set2 (EGFR; Log[nM] 5.0): 3%
- EGFR % Activity Set3 (EGFR; Log[nM] 5.0): 1%
